# Biological target: T1, Leucyl-cystinyl aminopeptidase (Rattus norvegicus, UniProt P97629)
# T1 sequence (P97629 whole entry): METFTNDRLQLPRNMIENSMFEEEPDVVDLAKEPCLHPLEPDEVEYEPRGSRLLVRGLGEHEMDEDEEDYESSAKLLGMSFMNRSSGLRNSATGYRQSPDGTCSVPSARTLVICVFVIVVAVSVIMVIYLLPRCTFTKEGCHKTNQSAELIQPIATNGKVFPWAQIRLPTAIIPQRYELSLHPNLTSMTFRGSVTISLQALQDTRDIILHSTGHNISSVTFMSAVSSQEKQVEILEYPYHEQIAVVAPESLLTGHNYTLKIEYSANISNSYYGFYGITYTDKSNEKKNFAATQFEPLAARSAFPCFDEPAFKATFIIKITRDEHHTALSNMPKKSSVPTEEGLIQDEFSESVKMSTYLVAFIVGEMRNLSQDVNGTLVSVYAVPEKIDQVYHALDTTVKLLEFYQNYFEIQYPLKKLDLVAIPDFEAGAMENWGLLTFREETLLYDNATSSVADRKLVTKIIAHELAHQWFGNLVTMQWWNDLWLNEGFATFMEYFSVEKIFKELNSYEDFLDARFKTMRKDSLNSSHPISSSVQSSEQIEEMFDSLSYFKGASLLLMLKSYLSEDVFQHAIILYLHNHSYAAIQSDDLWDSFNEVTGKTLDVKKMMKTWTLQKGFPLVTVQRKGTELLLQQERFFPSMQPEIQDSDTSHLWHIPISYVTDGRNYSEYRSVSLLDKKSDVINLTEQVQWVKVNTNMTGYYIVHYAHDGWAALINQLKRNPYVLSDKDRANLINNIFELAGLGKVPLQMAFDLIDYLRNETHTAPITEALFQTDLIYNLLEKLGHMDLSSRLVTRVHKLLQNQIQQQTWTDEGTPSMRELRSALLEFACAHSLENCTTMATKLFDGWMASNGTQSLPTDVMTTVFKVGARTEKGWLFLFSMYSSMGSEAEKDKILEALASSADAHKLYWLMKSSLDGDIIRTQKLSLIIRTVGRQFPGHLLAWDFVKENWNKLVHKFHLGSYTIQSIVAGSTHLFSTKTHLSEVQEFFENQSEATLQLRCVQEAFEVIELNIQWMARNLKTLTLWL
# Test: Inhibition Assay: The inventors have assumed that inhibition of nocturnal activity of placental leucine aminopeptidase (P-LAP), i.e. aminopeptidase that cleaves AVP, would maintain and/or increase an endogenous AVP level to enhance the antidiuretic effect, which would contribute to a decreased number of nocturnal voids, and have extensively studied compounds which inhibit P-LAP.
row,SMILES,IC50
1,CC(C)C[C@H](N)[C@](O)(Cc1nccc2c1CCC(CC1CC1)C2)C(=O)O (stereo partly drawn),0.015 µM
2,C=CCSC[C@H](N)[C@](O)(Cc1cc(CCCC2CC2)ccn1)C(=O)O,0.02 µM
3,Cc1c(CCCC2CC2)ccnc1C[C@](O)(C(=O)O)[C@@H](N)CC(C)C,0.37 µM
4,CCCC1CC1c1ccnc(C[C@](O)(C(=O)O)[C@@H](N)CC(C)C)c1 (stereo partly drawn),0.019 µM

# Stronger by IC50, values ahead:
row,IC50,SMILES
1,0.011 µM,CCCCCc1ccnc(C[C@](O)(C(=O)O)[C@@H](N)CC(C)C)c1
2,0.012 µM,COc1ccccc1CCc1ccnc(C[C@](O)(C(=O)O)[C@@H](N)CC(C)C)c1
3,0.00058 µM,Cc1cnc(C[C@](O)(C(=O)O)[C@@H](N)CCC2CC2)cc1CCCC1CC1
4,0.0017 µM,CSC[C@H](N)[C@](O)(Cc1cc(CCCC2CC2)c(C)cn1)C(=O)O

# Reference: ChEMBL document CHEMBL5727139, “Pyridine derivatives” (2018)
